# Measured values as given in patent US10336732B2, “1-heterocyclyl isochromanyl compounds and analogs for treating CNS disorders” (Sunovion Pharmaceuticals Inc., priority 2015, dated 2019).
# System: mice
# Assay: Neuropharmacological assay (SmartCube), behavioral signature of compound-treated mice
# Format: in vivo
# Details: i.p. 15 min before behavioral test, most efficacious dose(s) of 3 doses
# How it was run: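 Read-out is an automated video-based behavioral signature, scored as per-class probabilities (e.g., anxiolytic, antidepressant) against reference compounds. Dosing was i.p. at three doses, 15 min pre-test, in NMP, polyethylene glycol and propylene glycol. Values shown are from the most efficacious dose(s).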
Structure (SMILES),AD: ADHD (probability that behavioral signature matches class),AG: analgesic (probability that behavioral signature matches class),AX: anxiolytic (probability that behavioral signature matches class),CE: cognitive enhancer (probability that behavioral signature matches class),DP: anti-depressant (probability that behavioral signature matches class),HA: hallucinogen (probability that behavioral signature matches class),MS: mood stabilizer (probability that behavioral signature matches class),PS: anti-psychotic (probability that behavioral signature matches class),SD: sedative hypnotic (probability that behavioral signature matches class),UN: uncharacterized CNS activity (probability that behavioral signature matches class),XG: anxiogenic (probability that behavioral signature matches class)
"Cc1ccc2c(c1)[C@@H](C1CNC1)OCC2 [Compound I-116, (R)-3-(7-methylisochroman-1-yl)azetidine]",+ (LOQ ≤ + <5%),+ (LOQ ≤ + <5%),++ (5% ≤ ++ <25%),+ (LOQ ≤ + <5%),++ (5% ≤ ++ <25%),+ (LOQ ≤ + <5%),+ (LOQ ≤ + <5%),+++ (25% ≤ +++ <50%),++ (5% ≤ ++ <25%),+ (LOQ ≤ + <5%),+ (LOQ ≤ + <5%)
"Fc1cccc2c1CCO[C@H]2[C@@H]1CCN1 [Compound I-93, (S)-2-((R)-5-fluoroisochroman-1-yl)azetidine]",++ (5% ≤ ++ <25%),+++ (25% ≤ +++ <50%),++ (5% ≤ ++ <25%),++ (5% ≤ ++ <25%),+++ (25% ≤ +++ <50%),+ (LOQ ≤ + <5%),+ (LOQ ≤ + <5%),++ (5% ≤ ++ <25%),++ (5% ≤ ++ <25%),++ (5% ≤ ++ <25%),+ (LOQ ≤ + <5%)
"Fc1ccc2c(c1)[C@@H]([C@@H]1CCCN1)OCC2 [Compound I-6, (2S)-2-((S)-7-fluoroisochroman-1-yl)pyrrolidine]",+ (LOQ ≤ + <5%),+ (LOQ ≤ + <5%),++ (5% ≤ ++ <25%),+ (LOQ ≤ + <5%),++ (5% ≤ ++ <25%),+ (LOQ ≤ + <5%),+ (LOQ ≤ + <5%),++ (5% ≤ ++ <25%),+ (LOQ ≤ + <5%),+++ (25% ≤ +++ <50%),+ (LOQ ≤ + <5%)
"N#Cc1ccc2c(c1)[C@@H]([C@H]1CCCN1)OCC2 [Compound I-42, (S)-1-((R)-pyrrolidin-2-yl)isochroman-7-carbonitrile]",+ (LOQ ≤ + <5%),++ (5% ≤ ++ <25%),++ (5% ≤ ++ <25%),++ (5% ≤ ++ <25%),+++ (25% ≤ +++ <50%),+ (LOQ ≤ + <5%),+ (LOQ ≤ + <5%),++ (5% ≤ ++ <25%),++ (5% ≤ ++ <25%),+ (LOQ ≤ + <5%),+ (LOQ ≤ + <5%)
"Fc1ccc2c(c1)[C@@H]([C@H]1CCCN1)OCC2 [Compound I-8, (R)-2-((S)-7-fluoroisochroman-1-yl)pyrrolidine]",+ (LOQ ≤ + <5%),+ (LOQ ≤ + <5%),++ (5% ≤ ++ <25%),++ (5% ≤ ++ <25%),+++ (25% ≤ +++ <50%),+ (LOQ ≤ + <5%),+ (LOQ ≤ + <5%),+++ (25% ≤ +++ <50%),++ (5% ≤ ++ <25%),++ (5% ≤ ++ <25%),+ (LOQ ≤ + <5%)
"Clc1ccc2c(c1)[C@@H]([C@@H]1CCCN1)OCC2 [Compound I-30, (S)-2-((S)-7-chloroisochroman-1-yl)pyrrolidine]",+ (LOQ ≤ + <5%),++ (5% ≤ ++ <25%),+++ (25% ≤ +++ <50%),++ (5% ≤ ++ <25%),++ (5% ≤ ++ <25%),+ (LOQ ≤ + <5%),+ (LOQ ≤ + <5%),+++ (25% ≤ +++ <50%),++ (5% ≤ ++ <25%),+ (LOQ ≤ + <5%),+ (LOQ ≤ + <5%)
"CC1(C)Cc2ccccc2[C@H]([C@H]2CCCN2)O1 [Compound I-68, (R)-2-((R)-3,3-dimethylisochroman-1-yl)pyrrolidine]",+ (LOQ ≤ + <5%),+ (LOQ ≤ + <5%),+ (LOQ ≤ + <5%),+ (LOQ ≤ + <5%),+ (LOQ ≤ + <5%),+ (LOQ ≤ + <5%),+ (LOQ ≤ + <5%),+ (LOQ ≤ + <5%),+ (LOQ ≤ + <5%),+ (LOQ ≤ + <5%),+ (LOQ ≤ + <5%)
"Fc1cccc2c1[C@H]([C@H]1CCCN1)OCC2 [Compound I-4, (R)-2-((R)-8-fluoroisochroman-1-yl)pyrrolidine]",+ (LOQ ≤ + <5%),++ (5% ≤ ++ <25%),+++ (25% ≤ +++ <50%),++ (5% ≤ ++ <25%),++ (5% ≤ ++ <25%),+ (LOQ ≤ + <5%),+ (LOQ ≤ + <5%),++ (5% ≤ ++ <25%),+ (LOQ ≤ + <5%),+ (LOQ ≤ + <5%),+ (LOQ ≤ + <5%)
